Test results: US12344614B2, “Benzodiazepine derivatives as GABA a GAMMA1 PAM” (Hoffmann-La Roche Inc., priority 2021, dated 2025)
Like-named read-outs stand apart in the source and are kept apart here.

Legend:
[1] = biological target: human GABAA α1β2γ1 receptor (Homo sapiens (Human), UniProt P14867+Q8N1C3); assay: Radioligand binding assay, competition for [3H]RO7239181, membranes from HEK293F cells
Method: (§1) The affinity of compounds at GABAA γ1 subunit-containing receptors was measured by competition for [^3H]RO7239181 (67.3 Ci/mmol; Roche) binding to membranes from HEK293F cells (ThermoFisher R79007) expressing human (transiently transfected) receptors of composition α5β2γ1, α2β2γ1, α1β2γ1.
(§2) Harvested pellets from HEK293F cells expressing the different GABAA receptor subtypes were resuspended in Mannitol Buffer pH 7.2-7.4 (Mannitol 0.29M, Triethylamine 10 mM, Acetic acid 10 mM, EDTA 1 mM plus protease inhibitors (20 tablets Complete, Roche Diagnostics Cat. No. 05 056 489 001 per liter)), washed two times and then resuspended at 1:10 to 1:15 dilution in the same buffer. Cell disruption was performed by stirring the suspension in a Parr vessel #4637 at 435 psi for 15 minutes, and then the suspensions were centrifuged at 1000×g for 15 minutes at 4° C. (Beckman Avanti J-HC; rotor JS-4.2). The supernatant (S1) was transferred in a 21 Schott flask and the pellet (P1) was resuspended with Mannitol Buffer up to 175 ml. The resuspended pellet was transferred into a 250 ml Corning centrifugal beaker and centrifuged at 1500×g for 10 minutes at 4° C. (Beckman Avanti J-HC; rotor JS-4.2). The supernatant (S1) was then transferred in the 21 Schott flask and the pellet was discarded. The supernatants (S1) were centrifuged in 500 ml Beckman polypropylene centrifugal beaker at 15′000×g for 30 minutes at 4° C. (Beckman Avanti J-20 XP; rotor JLA-10.500). The pellet (P2) was resuspended with Mannitol Buffer 1:1 and frozen at −80° C. The supernatant (S2) was centrifuged in 100 ml Beckman polypropylene centrifugal tubes at 48000×g for 50 minutes at 4° C. (Beckman Avanti J-20 XP; rotor JA-18). The supernatant (S3) was discarded and the pellet (P3) was resuspended with 1:1 Mannitol Buffer. The P2 and P3 protein concentration was determined with the BIORAD Standard assay method with bovine serum albumin as standard and measured on the NANO-Drop 1000. The membrane suspension was aliquots (500 μl per tube) and stored at −80° C. until required.
(§3) Membrane homogenates were resuspended and polytronised (Polytron PT1200E Kinematica AG) in Potassium Phosphate 10 mM, KCl 100 mM binding buffer at pH 7.4 to a final assay concentration determined with a previous experiment.
(§4) Assays were incubated to equilibrium for 1 hour at 4° C. and then, membranes were filtered onto unifilter (96-well white microplate with bonded GF/C filters preincubated 20-50 minutes in 0.3% Polyethylenimine) with a Filtermate 196 harvester (Packard BioScience) and washed 4 times with cold Potassium Phosphate 10 mM pH 7.4, KCl 100 mM binding buffer. After anhydrousing, filter-retained radioactivity was detected by liquid scintillation counting. Ki values were calculated using Excel-Fit (Microsoft) and are the means of two determinations.

[2] = biological target: human GABAA α2β2γ1 receptor (Homo sapiens (Human), UniProt P47869+Q8N1C3); assay: as above
Method: as §1, §2, §3, §4

[3] = biological target: human GABAA α1β3γ2 receptor (Homo sapiens (Human), UniProt P14867+P18507); assay: Radioligand binding assay, competition for [3H]Flumazenil, HEK293F cells; details: for LogSel: Log[Ki α1β3γ2 (nM)/Ki α2β2γ1 (nM)]; for γ2/γ1 Selectivity Ratio: Ki α1β3γ2 (nM)/Ki α2β2γ1 (nM)
Method: The affinity of compounds at GABAA γ2 subunit-containing receptors was measured by competition for [^3H]Flumazenil (81.1 Ci/mmol; Roche) binding to HEK293F cells expressing human (transiently transfected) receptors of composition α1β3γ2.
Harvested pellets from HEK293F cells expressing the different GABAA γ2 receptor subtypes were resuspended in Mannitol Buffer pH 7.2-7.4 and processed as described above for the cells expressing the GABAA γ1 subunit-containing receptors.
Assays were incubated to equilibrium for 1 hour at 4° C. and harvested onto GF/C uni-filters (Packard) by filtration using a Packard harvester and washing with ice-cold wash buffer (50 mM Tris; pH 7.5). After anhydrousing, filter-retained radioactivity was detected by liquid scintillation counting. Ki values were calculated using Excel-Fit (Microsoft) and are the means of two determinations.

[4] = read-out: Ki h-GABAA α2β2γ1, [3H]RO7239181 20-30 nM, HEK293F membranes, 1 hour at 4° C., mean of two determinations

Row | Compound | Ki [1] [nM] | Ki ([1]; read-out: Ki h-GABAA α1β2γ1, [3H]RO7239181 20-30 nM, HEK293F membranes, 1 hour at 4° C., mean of two determinations) [nM] | Ki [2] [nM] | Ki [2, 4] [nM] | Ki [3] [nM] | LogSel [3] | Ki ([3]; read-out: Ki h-GABAA α1β3γ2, [3H]Flumazenil 1 nM, HEK293F membranes, 1 hour at 4° C., mean of two determinations) [nM] | γ2/γ1 Selectivity Ratio [3]
1 | CN1C(=O)CN=C(c2cc(O)ccc2F)c2c1ccc(Cl)c2Cl [Example 1, 6,7-dichloro-5-(2-fluoro-5-hydroxy-phenyl)-1-methyl-3H-1,4-benzodiazepin-2-one] | 2.9 | 2.9 | 2.27 | 2.27 | 28.7 | 1.1 | 28.7 | –
2 | Cc1nnc2n1-c1ccc(C(F)(F)F)c(Cl)c1C(c1cc(O)ccc1F)=NC2 [Example 9, 3-[7-chloro-1-methyl-8-(trifluoromethyl)-4H-[1,2,4]triazolo[4,3-a][1,4]benzodiazepin-6-yl]-4-fluoro-phenol] | 8.45 | – | 3.25 | 3.25 | 106 | 1.51 | – | 32.6
3 | Cc1nnc2n1-c1ccc(Cl)c(Cl)c1C(c1cc(O)ccc1F)=NC2 [Example 3, 3-(7,8-dichloro-1-methyl-4H-[1,2,4]triazolo[4,3-a][1,4]benzodiazepin-6-yl)-4-fluoro-phenol] | 5.44 | – | 1.45 | 1.45 | 34.3 | 1.37 | – | 23.7
4 | Cc1nnc2n1-c1ccc(Cl)c(Cl)c1C(c1cc(O)ccc1F)=N[C@H]2C [Example 4, 4-fluoro-3-[(4S)-7,8-dichloro-1,4-dimethyl-4H-[1,2,4]triazolo[4,3-a][1,4]benzodiazepin-6-yl]phenol] | 3.35 | – | 1.99 | 1.99 | 81.7 | 1.61 | – | 41.1
5 | COC1CN(C(=O)c2ncn3c2CN=C(c2cc(O)ccc2F)c2c-3ccc(C(F)(F)F)c2Cl)C1 [Example 15, [7-chloro-6-(2-fluoro-5-hydroxy-phenyl)-8-(trifluoromethyl)-4H-imidazo[1,5-a][1,4]benzodiazepin-3-yl]-(3-methoxyazetidin-1-yl)methanone] | – | – | 4.18 | 4.18 | 121 | 1.46 | – | 28.9
6 | C[C@@H]1N=C(c2nc(O)ccc2F)c2c(ccc(C(F)(F)F)c2Cl)-n2cc(C(=O)N3CCC3)nc21 [Example 30, azetidin-1-yl-[(4S)-7-chloro-6-(3-fluoro-6-hydroxy-2-pyridyl)-4-methyl-8-(trifluoromethyl)-4H-imidazo[1,2-a][1,4]benzodiazepin-2-yl]methanone] | – | – | 46.3 | 46.3 | 13000 | 2.45 | – | 280.8
7 | O=c1ccn2c(n1)CN=C(c1c(F)ccc(O)c1F)c1c-2ccc(Cl)c1Cl [Example 14, 8,9-dichloro-7-(2,6-difluoro-3-hydroxy-phenyl)-5H-pyrimido[1,2-a][1,4]benzodiazepin-3-one] | – | – | 4.67 | 4.67 | 74.6 | 1.20 | – | 16.0
8 | Oc1ccc(F)c(C2=NCc3nncn3-c3ccc(C(F)(F)F)c(Cl)c32)c1 [Example 10, 3-[7-chloro-8-(trifluoromethyl)-4H-[1,2,4]triazolo[4,3-a][1,4]benzodiazepin-6-yl]-4-fluoro-phenol] | – | – | 1.04 | 1.04 | 89.9 | 1.94 | – | 86.5
9 | O=c1ccn2c(n1)CN=C(c1cc(O)ccc1F)c1c-2ccc(Cl)c1Cl [Example 6, 8,9-dichloro-7-(2-fluoro-5-hydroxy-phenyl)-5H-pyrimido[1,2-a][1,4]benzodiazepin-3-one] | – | – | 2.18 | 2.18 | 46.7 | 1.33 | – | 21.4
10 | CN1C(=O)CN=C(c2c(F)ccc(O)c2F)c2c1ccc(Cl)c2Cl [Example 12, 6,7-dichloro-5-(2,6-difluoro-3-hydroxy-phenyl)-1-methyl-3H-1,4-benzodiazepin-2-one] | – | – | 2.12 | 2.12 | 371 | 2.24 | – | 175.4
11 | Cc1nc2n(n1)-c1ccc(C(F)(F)F)c(Cl)c1C(c1nc(O)ccc1Cl)=N[C@H]2C [Example 29, 5-chloro-6-[(4S)-7-chloro-2,4-dimethyl-8-(trifluoromethyl)-4H-[1,2,4]triazolo[1,5-a][1,4]benzodiazepin-6-yl]pyridin-2-ol] | – | – | 7.7 | 7.7 | 12000 | 3.19 | – | 1557.5
12 | Cc1cnc2n1-c1ccc(C(F)(F)F)c(Cl)c1C(c1nc(O)ccc1F)=N[C@H]2C [Example 23, 6-[(4S)-7-chloro-1,4-dimethyl-8-(trifluoromethyl)-4H-imidazo[1,2-a][1,4]benzodiazepin-6-yl]-5-fluoro-pyridin-2-ol] | – | – | 8.88 | 8.88 | 8010 | 2.96 | – | 902.4
13 | Cc1nnc2n1-c1ccc(Cl)c(Cl)c1C(c1c(F)ccc(O)c1F)=NC2 [Example 13, 3-(7,8-dichloro-1-methyl-4H-[1,2,4]triazolo[4,3-a][1,4]benzodiazepin-6-yl)-2,4-difluoro-phenol] | – | – | 3.85 | 3.85 | 72.6 | 1.28 | – | 18.8
14 | C[C@@H]1N=C(c2nc(O)ccc2F)c2c(ccc(C(F)(F)F)c2Cl)-n2c1nc1c2CCC1 [Example 24, 6-[(10S)-6-chloro-10-methyl-5-(trifluoromethyl)-1,9,12-triazatetracyclo[9.6.0.02,7.013,17]heptadeca-2(7),3,5,8,11,13(17)-hexaen-8-yl]-5-fluoro-pyridin-2-ol] | – | – | 6.61 | 6.61 | 4190 | 2.80 | – | 634.3
15 | COC1CN(C(=O)c2nc3n(n2)-c2ccc(Cl)c(Cl)c2C(c2cc(O)ccc2F)=NC3)C1 [Example 7, [7,8-dichloro-6-(2-fluoro-5-hydroxy-phenyl)-4H-[1,2,4]triazolo[1,5-a][1,4]benzodiazepin-2-yl]-(3-methoxyazetidin-1-yl)methanone] | – | – | 2.22 | 2.22 | 34.6 | 1.19 | – | 15.6
16 | C[C@@H]1N=C(c2c(F)ccc(O)c2F)c2c(ccc(Cl)c2Cl)-n2ccc(=O)nc21 [Example 18, (5S)-8,9-dichloro-7-(2,6-difluoro-3-hydroxy-phenyl)-5-methyl-5H-pyrimido[1,2-a][1,4]benzodiazepin-3-one] | – | – | 6.6 | 6.6 | 255 | 1.59 | – | 38.7
17 | Cc1nnc2n1-c1ccc(C(F)(F)F)c(Cl)c1C(c1cc(O)ccc1F)=N[C@H]2C [Example 17, 4-fluoro-3-[(4S)-7-chloro-1,4-dimethyl-8-(trifluoromethyl)-4H-[1,2,4]triazolo[4,3-a][1,4]benzodiazepin-6-yl]phenol] | – | – | 1.75 | 1.75 | 68.8 | 1.59 | – | 39.3
